Data set [1] is described as follows: Reversed-phase HPLC retention time (relative hydrophobicity). The format is physicochemical. As to conditions: RP-HPLC at 25 °C; Zorbax 300 SB-C8 150 × 4.6 mm, linear AB gradient 1% acetonitrile/min, 1 mL/min, A 0.1% aqueous TFA pH 2, B 0.1% TFA in acetonitrile.
The test system of data set [2] is INS-1 cells. In words: Insulin-releasing activity in vitro (rat insulin ELISA). It is filed as cell-based. As to conditions: 2.8 mM glucose; for insulin release at 10^−5 M compared with tigerinin-1R: 10^−5 M peptide, 1 h in KRB buffer at 37 °C, triplicate. The protocol: INS-1 cells were harvested with trypsin/EDTA, seeded into 6-well plates (3–5 × 10^5 cells/well), and allowed to attach overnight. Prior to the test, cells were preincubated in 1 mL Krebs-Ringer bicarbonate (KRB) buffer without glucose (115 mMNaCl, 4.7 mMKCl, 1.28 mM CaCl2,1.2 mM KH2PO4, 1.2 mM MgSO4, 10 mM NaHCO3, and 1 g/L BSA, pH 7.4) at 37 °C for 45 min. Cells were then incubated in the absence or presence of peptides for 1 h, using the same buffer with 2.8 mM glucose. The insulin supernatants were collected, and subsequently analyzed using ultrasensitive rat insulin ELISA kits (Mercodia, Sweden). The assay was repeated in triplicate.
Background: ELISA stands for enzyme-linked immunosorbent assay.

The test system of data set [3] is INS-1 cells. In words: Measurement of intracellular Ca2+ (Fluo-3 AM, confocal microscopy). It is filed as cell-based, rat. As to conditions: 10^−5 M peptide, 2.8 mM glucose; less than 30 mM KCl, significantly greater than glucose alone. As for the experimental part: INS-1 cells (2 × 10^5) were cultured in glass bottom dishes (NEST, Wuxi, China). Following overnight culture, the cells were washed with KRB buffer three times, and then incubated with 5 μM fluorescent Ca^2+ probe Fluo-3 AM solution (Solarbio, Beijng, China). After loading for 30 min and washing three times with KRB buffer, cells were incubated for 15 min in the absence of Fluo-3 AM. KRB buffer supplemented with 2.8 mM glucose containing 10^−5 M peptide was then added. Images of cells were obtained by laser scanning confocal microscope (LSM710, Carl Zeiss, Oberkochen, Germany). The fluorescence was excited at 480 nm at 4 s intervals, and detected at 515 nm. Incubations in the presence of 2.8 mM glucose alone (negative control) or extra 30 mM KCl (positive control) were also carried out individually.

Another data set concerns Kunming male mice. The data set can be described thus: Glucose tolerance in vivo in overnight-fasted mice. On the set-up: species or system mouse. As to conditions: n = 6. The protocol:
Kunming male mice were housed individually in an air-conditioned room (22 ± 2 °C) with a 12 h light/12 h dark cycle, and were handled in accordance with the Guide for Care and Use of Laboratory Animals in China and approved by the animal ethics committee of Jilin University (Approval No. JLUSWLL003, Jilin, China; dated on 10 May 2017). Drinking water and standard laboratory chow were freely available. No adverse effects were observed following administration of the peptides. Age-matched groups (n = 6) of overnight-fasted mice received an intraperitoneal injection of either glucose (18 mmol/kg body weight), tigerinin-1R (75 nmol/kg body weight), or [C11K]tigerinin-1R (75 nmol/kg body weight) individually as control groups, and glucose in combination with tigerinin-1R or glucose in combination with [C11K]tigerinin-1R as experimental groups, respectively. All solutions were administered in 0.9% NaCl (5 mL/kg body weight). Blood samples were collected from the cut tip of the tail vein of conscious mice, before injection and at 15, 30, 60, and 120 min immediately after injection, and glucose was measured using a Sannuo stable blood glucose meter (Changsha, China) using corresponding test strips.

Data set [4] is described as follows: Peptide degradation assay in 10% fetal bovine serum. It is filed as in vitro ADME. As to conditions: 200 μM peptide in PBS, 37 °C. The protocol: Peptides dissolved in PBS to a final concentration of 200 μM were incubated with 10% fetal bovine serum at 37 °C. At different time points (0, 60, and 120 min), 20 μL peptide samples were taken and diluted with an equal volume of 0.1% aqueous trifluoroacetic acid (TFA). The samples were then analyzed by RP-HPLC. The experiment was performed on a Shimadzu HPLC system with a Zorbax 300 SB-C8 column (150 × 4.6 mm I.D.; 5 µm particle size, 300 Å pore size; Agilent Technologies, Palo Alto, CA, USA) using a linear AB gradient (1% acetonitrile/min) and a flow rate of 1 mL/min, where solvent A was 0.1% aqueous TFA, pH 2, and solvent B was 0.1% TFA in acetonitrile at 25 °C.

A further data set deals with bacteria. As to conditions: cited from earlier work. An excerpt:
(§1) Tigerinin-1R (Arg–Val–Cys–Ser–Ala–Ile–Pro–Leu–Pro–Ile–Cys–His–NH2) is a cationic peptide containing a disulfide bond that is isolated from the skin secretions of Hoplobatrachus ugulosus. […] In vivo studies have shown that administration of tigerinin-1R or some of its analog ...

The next data set relates to high-fat fed mice. As to conditions: administration to high-fat fed mice; cited from earlier work.
Excerpt: as §1

Data set [5] has as its system INS-1 cells. The data set can be described thus: Protection against palmitic acid-induced apoptosis (MTT viability). The format is cell-based, rat. As to conditions: 0.5 mM PA, 24 h. The protocol:
Solutions of free fatty acids (FFAs) were prepared. Briefly, 100 mM palmitic acid (PA) stocks (Sigma, St. Louis, MO, USA) were prepared in 0.1 M NaOH at 70 °C. Ten percent (w/v) FFA-free BSA (Roche, Mannheim, Germany) solution was prepared in PBS buffer. A 5 mM FFA/10% BSA solution was prepared by mixing 50 μL FFA to 950 μL 10% BSA in a 60 °C water bath. The above solution was then cooled to room temperature, diluted in RPMI 1640 to 0.5 mM and filtered. Cells were added into 96-well plates (5 × 10^3 cells/well). Complete medium was withdrawn after overnight incubation at 37 °C. One hundred microliters of different peptides corresponding to a serial dilution series (concentrations 10^−9, 10^−7, 10^−5 M) diluted with medium containing 0.5 mM PA, was added for another 24 h. Meanwhile, incubation in fresh medium, with or without PA, were set as positive and negative controls, respectively. At the end of incubation, 20 μL of MTT solution (5 mg/mL in PBS) was added to each well and further incubated at 37 °C for 4 h. Cell viability was determined by dissolving the crystallized MTT with dimethyl sulfoxide (150 μL/well).

Entries after “also recorded” stand apart in the source; their conditions may differ.

For the compound “RVCSAIPLPICH-amide (C–C) (disulfide) [tigerinin-1R, Arg–Val–Cys–Ser–Ala–Ile–Pro–Leu–Pro–Ile–Cys–His–NH2, cationic 12-mer peptide containing a disulfide bond, from frog skin secretions; parent peptide, synthesized here]”, the “tR (min), retention time during reversed-phase HPLC (relative hydrophobicity)” value in data set [1] was determined as 19.465 min. In addition, in the data set with INS-1 cells [2] (10^−8 to 10^−5 M, 1 h in KRB buffer pH 7.4 at 37 °C, compared to 2.8 mM glucose alone, n = 3), the “insulin secretion of INS-1 cells at different peptide concentrations” value is given as “concentration-dependent manner”. In the data set on INS-1 cells [3], the “concentration of intracellular Ca2+ (Fluo-3 fluorescence)” value was “produced an increase in the concentration of intracellular Ca^2+”. Besides, in the data set with Kunming male mice (75 nmol/kg peptide i.p. alone, without glucose injection), the “plasma glucose concentrations after peptide alone” value is reported as “little change in plasma glucose concentrations”. In the data set with Kunming male mice (75 nmol/kg peptide i.p. with glucose 18 mmol/kg, 15-120 min), the “glucose tolerance / hypoglycemic ability (plasma glucose)” value was “improved glucose tolerance; also recorded: higher hypoglycemic ability than [C11K]tigerinin-1R”. The “stability: RP-HPLC peak area of intact peptide at/within 120 min” value in data set [4] is recorded as “changed very little”. Also, in the data set on bacteria, the antibacterial activity result is “lacks antibacterial activity”. The “insulin release and glucose tolerance in high-fat fed mice” value in the data set on high-fat fed mice was “significantly enhanced insulin release and improved glucose tolerance”.

As for “Ac-RVCSAIPLPIKH-NH2 [[C11K]tigerinin-1R]”, in data set [4] (60 min), the “stability: RP-HPLC peak area of intact peptide after 60 min” value is given as “decreased dramatically”. Moreover, the “stability: RP-HPLC peak area of intact peptide at/within 120 min” value in data set [4] is listed as “almost disappeared”.

Ac-RVASAIPLPIAH-NH2 [tigerinin-linear]: the “tR (min), retention time during reversed-phase HPLC (relative hydrophobicity)” value in data set [1] came out at 11.590 min. Further, the “insulin release at 10^−5 M compared with tigerinin-1R” value with INS-1 cells [2] is reported as “lower insulin-releasing activity than tigerinin-1R”.

With `CCCCCCCCCCCCCCCC(=O)O` [PA, palmitic acid], the “viability of INS-1 cells with PA (positive control)” value with INS-1 cells [5] is reported as 58.24%.

“CSAIPLPIC-amide (C–C) (disulfide) [tigerinin-cyclic, tigerinin-1R analog retaining only the cyclic moiety]”: the “insulin release at 10^−5 M compared with tigerinin-1R” value with INS-1 cells [2] is “decrease in insulin-releasing ability”.
